In PubChem BioAssay (NCI):
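Assay format: 96-well plates, 48-hour exposure. At the GI50, growth is halved. The concentration for full growth arrest is given as TGI.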

Key:
Assay in all cases: NCI anticancer screen, dose series, 48 h
MOLT-4 leukemia = test system: MOLT-4 leukemia
PC-3 prostate = test system: PC-3 prostate
OVCAR-8 ovarian = test system: OVCAR-8 ovarian
COLO 205 colon = test system: COLO 205 colon
786-0 renal = test system: 786-0 renal
SK-OV-3 ovarian = test system: SK-OV-3 ovarian
EKVX NSCLC = test system: EKVX NSCLC
SNB-19 CNS = test system: SNB-19 CNS
HT29 colon = test system: HT29 colon
SF-539 CNS = test system: SF-539 CNS
RPMI-8226 leukemia = test system: RPMI-8226 leukemia
HL-60(TB) leukemia = test system: HL-60(TB) leukemia
SN12C renal = test system: SN12C renal
OVCAR-3 ovarian = test system: OVCAR-3 ovarian
SW-620 colon = test system: SW-620 colon
KM12 colon = test system: KM12 colon
SK-MEL-2 melanoma = test system: SK-MEL-2 melanoma
BT-549 breast = test system: BT-549 breast
M14 melanoma = test system: M14 melanoma
RXF 393 renal = test system: RXF 393 renal
DU-145 prostate = test system: DU-145 prostate
NCI-H460 lung = test system: NCI-H460 lung
K-562 leukemia = test system: K-562 leukemia
TK-10 renal = test system: TK-10 renal
HOP-92 NSCLC = test system: HOP-92 NSCLC
OVCAR-5 ovarian = test system: OVCAR-5 ovarian
UACC-62 melanoma = test system: UACC-62 melanoma
SF-268 CNS = test system: SF-268 CNS
MDA-MB-231 breast = test system: MDA-MB-231 breast
IGROV1 ovarian = test system: IGROV1 ovarian
NCI/ADR-RES ovarian = test system: NCI/ADR-RES ovarian
UACC-257 melanoma = test system: UACC-257 melanoma
ACHN renal = test system: ACHN renal
SR leukemia = test system: SR leukemia
HS 578T breast = test system: HS 578T breast
A549 NSCLC = test system: A549 NSCLC
CAKI-1 renal = test system: CAKI-1 renal
MALME-3M melanoma = test system: MALME-3M melanoma
SNB-75 CNS = test system: SNB-75 CNS
OVCAR-4 ovarian = test system: OVCAR-4 ovarian
CCRF-CEM leukemia = test system: CCRF-CEM leukemia
A498 renal = test system: A498 renal
SK-MEL-28 melanoma = test system: SK-MEL-28 melanoma
MDA-MB-435 = test system: MDA-MB-435
T-47D breast = test system: T-47D breast
UO-31 renal = test system: UO-31 renal

CCN1CCN(Cc2ccc(NC(=O)c3cccc(C#Cc4cccc5[nH]nc(N)c45)c3)cc2C(F)(F)F)CC1
GI50 (MOLT-4 leukemia): 227 nM | TGI (MOLT-4 leukemia): 1160 nM | GI50 (PC-3 prostate): 1360 nM | TGI (PC-3 prostate): 3130 nM | GI50 (OVCAR-8 ovarian): 395 nM | TGI (OVCAR-8 ovarian): 1530 nM | GI50 (COLO 205 colon): 185 nM | TGI (COLO 205 colon): 1280 nM | GI50 (786-0 renal): 402 nM | TGI (786-0 renal): 1320 nM | GI50 (SK-OV-3 ovarian): 802 nM | TGI (SK-OV-3 ovarian): 2200 nM | GI50 (EKVX NSCLC): 1410 nM | TGI (EKVX NSCLC): 2730 nM | GI50 (SNB-19 CNS): 1070 nM | TGI (SNB-19 CNS): 2300 nM | GI50 (HT29 colon): 118 nM | TGI (HT29 colon): 1160 nM | GI50 (SF-539 CNS): 205 nM | TGI (SF-539 CNS): 709 nM | GI50 (RPMI-8226 leukemia): 702 nM | TGI (RPMI-8226 leukemia): 3040 nM | GI50 (HL-60(TB) leukemia): 97.9 nM | TGI (HL-60(TB) leukemia): 1040 nM | GI50 (SN12C renal): 584 nM | TGI (SN12C renal): 1930 nM | GI50 (OVCAR-3 ovarian): 615 nM | TGI (OVCAR-3 ovarian): 2170 nM | GI50 (SW-620 colon): 343 nM | TGI (SW-620 colon): 1590 nM | GI50 (KM12 colon): 302 nM | TGI (KM12 colon): 1330 nM | GI50 (SK-MEL-2 melanoma): 352 nM | TGI (SK-MEL-2 melanoma): 1340 nM | GI50 (BT-549 breast): 1100 nM | TGI (BT-549 breast): 2410 nM | GI50 (M14 melanoma): 62.2 nM | TGI (M14 melanoma): 547 nM | GI50 (RXF 393 renal): 287 nM | TGI (RXF 393 renal): 918 nM | GI50 (DU-145 prostate): 419 nM | TGI (DU-145 prostate): 1680 nM | GI50 (NCI-H460 lung): 390 nM | TGI (NCI-H460 lung): 1660 nM | TGI (K-562 leukemia): 154 nM | GI50 (TK-10 renal): 631 nM | TGI (TK-10 renal): 1750 nM | GI50 (HOP-92 NSCLC): 350 nM | TGI (HOP-92 NSCLC): 1890 nM | GI50 (OVCAR-5 ovarian): 685 nM | TGI (OVCAR-5 ovarian): 2070 nM | GI50 (UACC-62 melanoma): 509 nM | TGI (UACC-62 melanoma): 1770 nM | GI50 (SF-268 CNS): 620 nM | TGI (SF-268 CNS): 2010 nM | GI50 (MDA-MB-231 breast): 120 nM | TGI (MDA-MB-231 breast): 573 nM | GI50 (IGROV1 ovarian): 68.1 nM | TGI (IGROV1 ovarian): 717 nM | GI50 (NCI/ADR-RES ovarian): 1590 nM | TGI (NCI/ADR-RES ovarian): 5210 nM | GI50 (UACC-257 melanoma): 1050 nM | TGI (UACC-257 melanoma): 2820 nM | GI50 (ACHN renal): 180 nM | TGI (ACHN renal): 933 nM | GI50 (SR leukemia): 238 nM | TGI (SR leukemia): 732 nM | GI50 (HS 578T breast): 518 nM | TGI (HS 578T breast): 3190 nM | GI50 (A549 NSCLC): 1130 nM | TGI (A549 NSCLC): 2480 nM | GI50 (CAKI-1 renal): 485 nM | TGI (CAKI-1 renal): 1760 nM | GI50 (MALME-3M melanoma): 27.3 nM | TGI (MALME-3M melanoma): 422 nM | GI50 (SNB-75 CNS): 184 nM | TGI (SNB-75 CNS): 890 nM | GI50 (OVCAR-4 ovarian): 198 nM | TGI (OVCAR-4 ovarian): 1610 nM | GI50 (CCRF-CEM leukemia): 778 nM | TGI (CCRF-CEM leukemia): 3960 nM | GI50 (A498 renal): 108 nM | TGI (A498 renal): 1070 nM | GI50 (SK-MEL-28 melanoma): 568 nM | TGI (SK-MEL-28 melanoma): 1780 nM | GI50 (MDA-MB-435): 339 nM | TGI (MDA-MB-435): 1570 nM | GI50 (T-47D breast): 975 nM | TGI (T-47D breast): 3390 nM | GI50 (UO-31 renal): 299 nM | TGI (UO-31 renal): 1280 nM
